Target: JMJD2C (Homo sapiens (Human), UniProt Q9H3R0)
Assay: JMJD2C TR-FRET enzyme inhibition assay
Format: biochemical
Details: H3K9me3-biotin peptide
Text: This assay determines the ability of a test compound to inhibit Jarid1A, Jarid1B, and JMJD2C demethylase activity. Baculovirus expressed Jarid1A (GenBank Accession # NM_001042603, AA1-1090) was purchased from BPS Bioscience (Cat #50110). Baculovirus expressed Jarid1B (GenBank Accession # NM_006618, AA 2-751) was purchased from BPS Bioscience (Cat #50121) or custom made by MolecularThroughput. Baculovirus-expressed JMJD2C (GenBank Accession # BC143571, AA 2-372) was purchased from BPS Bioscience (Cat #50105).
The ability of test compounds to inhibit the activity of JMJD2C was determined in 384-well plate format under the following reaction conditions: 0.3 nM JMJD2C, 300 nM H3K9me3-biotin labeled peptide (Anaspec cat #64360), 2 μM alpha-ketoglutaric acid in assay buffer of 50 mM HEPES, pH7.3, 0.005% Brij35, 0.5 mM TCEP, 0.2 mg/ml BSA, 50 μM sodium L-ascorbate, and 2 μM ammonium iron(II) sulfate. Reaction product was determined quantitatively by TR-FRET after the addition of detection reagent Phycolink Streptavidin-allophycocyanin (Prozyme) and Europium-anti-di-methylated histone H3 lysine 9 (H3K9me2) antibody (PerkinElmer) in the presence of 5 mM EDTA in LANCE detection buffer (PerkinElmer) at a final concentration of 50 nM and 1 nM, respectively.
The assay reaction was initiated by the following: 2 μl of the mixture of 900 nM H3K9me3-biotin labeled peptide and 6 μM alpha-ketoglutaric acid with 2 μl of 11-point serial diluted inhibitor in 3% DMSO were added to each well of the plate, followed by the addition of 2 μl of 0.9 nM JMJD2C to initiate the reaction. The reaction mixture was incubated at room temperature for 30 min, and terminated by the addition of 6 μl of 5 mM EDTA in LANCE detection buffer containing 100 nM Phycolink Streptavidin-allophycocyanin and 2 nM Europium-anti-H3K9me2 antibody. Plates were read by EnVisionMultilabel Reader in TR-FRET mode (excitation at 320 nm, emission at 615 nm and 665 nm) after 1 hr incubation at rt. A ratio was calculated (665/615) for each well and fitted to determine inhibition constant (IC50).

Sequence of JMJD2C (Q9H3R0 2-372): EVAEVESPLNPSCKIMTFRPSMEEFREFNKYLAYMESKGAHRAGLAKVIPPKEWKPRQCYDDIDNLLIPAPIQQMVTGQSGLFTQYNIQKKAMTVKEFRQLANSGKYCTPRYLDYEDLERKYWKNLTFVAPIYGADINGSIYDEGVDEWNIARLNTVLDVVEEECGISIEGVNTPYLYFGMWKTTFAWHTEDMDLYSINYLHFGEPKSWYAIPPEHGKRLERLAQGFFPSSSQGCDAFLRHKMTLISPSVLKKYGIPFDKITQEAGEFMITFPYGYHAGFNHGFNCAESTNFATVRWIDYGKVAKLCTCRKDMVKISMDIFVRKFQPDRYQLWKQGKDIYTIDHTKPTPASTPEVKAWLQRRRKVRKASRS

Row | Substance | IC50 [nM]
1 | 3-{[(7-fluoro-3,4-dihydro-2H-chromen-4-yl)methyl]- amino}pyridine-4-carboxylic acid [Example 65] | < 100
2 | 3-{[(6-chloro-1-hydroxy-1,2,3,4-tetrahydronaphthalen-1- yl)methyl]amino}pyridine-4-carboxylic acid [Example 67] | 100 to 1000
3 | 3-{[(6-chloro-1,2,3,4-tetrahydronaphthalen-1-yl)methyl]- amino}pyridine-4-carboxylic acid [Example 68] | 100 to 1000

From patent publication US10807956B2, “Histone demethylase inhibitors” (CELGENE QUANTICEL RESEARCH, INC., priority 2012, dated 2020)
